Experimental data: a melting point compilation (Tetko et al.; mined from patent text by program, amines drawn as free bases though some values may be those of a salt)

melting point [°C]	SMILES
180 to 182	CNc1nc2c(s1)C(=O)CCC2
143 to 145	O=C(O)Cc1ccc(OCc2ccccc2)c(C(=O)O)c1
135 to 137	CC(=O)Nc1ccc2c(c1)/C(=N\NC(N)=O)C(=O)N2CCN(C(C)C)C(C)C
216 to 218	CCS(=O)(=O)Nc1cc2occc(=O)c2cc1Oc1ccccc1
102 to 104	NC(=S)C(CN1CCOCC1)c1ccccn1 (stereo not drawn)
115 to 120	O=C(C=CC[C@H]1NC(=O)[C@@H]1N1C(=O)c2ccccc2C1=O)OCc1ccccc1
104 to 106	Cc1cc(C(C)NC(=O)N(C)O)c(C)s1 (stereo not drawn)
185 to 187	CC(C)CNc1nc2c(n1C)C(=O)N1CCN=C1N2Cc1ccc(Cl)cc1
221 to 222	COc1cc(Cc2cnc(N)nc2N)cc2c1OC(C)(C)C=C2Cl
76 to 80	CCCCS(=O)(=O)Nc1ccc(C(=O)c2ccccc2)cc1
100 to 102	CCOC(=O)C(=CNc1ccc(Br)cc1)C(=O)OCC
244 to 245	Nc1ccc(S(=O)(=O)c2cc(Br)nc(N3CCOCC3)c2)cc1
88	CCCc1ccc(-c2ccc(-c3cccs3)c(F)c2)cc1
76 to 79	CCCCCN(CCCCC)C(=O)C(CCC(=O)O)CS(=O)(=O)c1ccc(Cl)c(Cl)c1 (stereo not drawn)
98 to 100	CC(=O)c1c(-c2ccsc2)sc(-c2ccncc2)c1C
175 to 180	Cc1cc(Cl)cc(C(=O)c2ccc(S(C)(=O)=O)cc2Cl)c1O
155 to 157	CC(=O)c1cc2c(s1)CCC1CC(=O)N(c3ccc(Cl)cc3)N=C21 (stereo not drawn)
91.5 to 92.5	CCOCCS(=O)(=O)c1nc[nH]n1
88 to 90	CCn1c(COCc2ccccc2)nc(C(C)C)c1Sc1cccc(F)c1
175 to 176	CN(C)C=NC(=O)c1nn(-c2ccccc2)c(=O)cc1Oc1ccccc1
164 to 166	O=C(Sc1ccccc1)c1cc2cc(CCl)ccc2oc1=O
204 to 209	N#Cc1cccc(C2=Nc3ccc(C4CC4)cc3NC(=O)C2)c1

melting point [°C]	SMILES
188 to 192	CCCOc1ccc(S(=O)(=O)N2CCN(CC(=O)OCC)CC2)cc1-c1nc2cc3nc[nH]c3cc2c(=O)[nH]1
129 to 136	C=CC1CC2=C(CC=C(OC)C2)C2CCC3(C)C(=CCC3O)C12 (stereo not drawn)
142 to 146	COc1cc(Cn2c(-c3ccc(O)cc3)c(C)c3cc(O)ccc32)ccc1OCCN1CCCCCC1
69 to 74	CCCCCCCCCCCCC1=C(OC(C)=O)C(=O)c2c(C)cccc2C1=O
187 to 188	Cc1ccc(CSc2nc3cc4c(cc3[nH]2)OCO4)nc1
184 to 185	Cc1cccc(CC(=O)O)c1OCCCc1cn(-c2ccc(C(F)(F)F)cn2)nc1C1CCCCC1
30 to 32	CC(C)c1ccc(N(C=O)C(=O)N(C)C)cc1
218 to 220	COc1ccc2c(=O)[nH]c(-c3cc(C)c(OCCN4CCCC4)c(C)c3)nc2c1
100	OCC1OC(n2cnc3c(OCC4CC4)ncnc32)CC1F (stereo not drawn)
204 to 206	COc1ccc(N2C(=O)/C(=C/C(C)=NO)C2c2ccccc2)cc1 (stereo not drawn)
136	Cc1cc2sccc2c(N)n1
60 to 72	Cc1ccc(C)c(Oc2ccc(C#N)cc2S(=O)(=O)N2CCNCC2)c1
74 to 76	CCOC(=O)c1ccc([C@H]2CC[C@H](NCc3ccccc3)CC2)cc1
180 to 181	CS(=O)(=O)c1ccc(-c2ccccc2-c2ccc(Cl)cc2)cc1
94 to 96	CCOC(=O)C=Cc1cc(C=CC(=O)OCC)cc(Cc2cccnc2)c1
176 to 178	COc1ccc(S(=O)(=O)C2(C(=O)NO)CCN(Cc3ccc(F)cc3)CC2)cc1
94 to 95	CCCc1c(OCCCCCOc2coc(CO)cc2=O)ccc(C(C)=O)c1O
169	Cc1cc(C(=O)NCc2ccc(Br)cc2F)c(OCC(=O)O)cc1F
151 to 152	CCCOc1ccc2c(O)c([N+](=O)[O-])c(=O)oc2c1
104 to 105	CCOC(=O)c1cccc([N+](=O)[O-])c1NC(=O)OC(C)(C)C
238 to 240	COc1c(Br)cc(-c2c3ccccc3cc3sc4ccccc4c23)cc1Br
90 to 92	O=C1C(=O)c2ccccc2C2=C1SCC1(CCN(Cc3c(F)cccc3Cl)CC1)O2

melting point [°C]	SMILES
124 to 126	CC(C)(C)C(=O)OCOC(=O)Cn1c(=O)c2cc(Cl)ccc2n(Cc2ccc(Cl)c(Cl)c2)c1=O
72 to 73	O=C1N(c2cc(Cl)cc(Cl)c2)C(=O)C2(Cc3ccc(-c4ccc([N+](=O)[O-])cc4)cc3)CCCN12 (stereo not drawn)
102 to 103	CC(C)c1cc(Oc2ccc(Cl)c(Cl)c2)nc(C(C)C)c1N=CN(C)C
120	OC1CCSC(=S)N1c1ccccn1 (stereo not drawn)
176 to 178	Cc1ccc(Cl)cc1N1CCCN(C(C)C)C1=S
105	N#Cc1cnc(Nc2ccc(OCCn3cncn3)cc2)nc1-c1ccccc1
128 to 130	CCCN(CCC)Cc1nc(-c2ncn3c2CN(C)C(=O)c2sccc2-3)no1
300 to 305	O=C(O)c1cccc(-n2c(=O)c3c(Cc4ccccc4)n[nH]c3c3cccnc32)c1
153 to 154	CCn1c(=O)c2c(nc(/C=C/c3ccc(OC)c(OC)c3OC)n2C)n(CC)c1=O
154	Cc1ccc(C(=C/C=C/C(=O)Oc2ccc([N+](=O)[O-])cc2)c2ccc(C)cc2)cc1
148 to 150	CCC(=O)Cc1ccc(OCc2nnn[nH]2)cc1
97 to 98	COC(=O)c1ccc(-c2ccccc2-c2nnn(C(C)(C)c3ccccc3)n2)cc1
159 to 162	Cc1cc(-c2ccc(S(C)(=O)=O)cc2)n(-c2ccc(F)cc2)c1C
210 to 211	CCn1nc(OC2CSCCC2=O)c(-c2ccc(F)cc2)c1-c1ccc(S(C)(=O)=O)cc1 (stereo not drawn)
96	COc1ccc(C(C)N(C)CCCOc2ccc(S(=O)(=O)c3c(C(C)C)n(C)c4ccccc34)cc2)cc1OC (stereo not drawn)
174 to 175	CCOCCNC(=O)c1cc(C(=O)OC)c(O)c2ncc(Cc3ccc(F)cc3)cc12
138 to 141	CNC(=O)N(O)C(C)c1ccc(C#Cc2ccccc2)cc1 (stereo not drawn)
115 to 118	COc1cc(N)c(Cl)cc1C(=O)NCC1CCN(CCCCCC(=O)c2cccs2)CC1
101 to 103	Cc1ccc(C2SC(=S)N(C(=O)NN3CCOCC3)C2C)cc1 (stereo not drawn)
170 to 171	Cc1ccc(C2COc3c(C)c(C)c(NC(=O)CC(C)(C)C)c(C)c32)nc1 (stereo not drawn)
274 to 276	CC(C)(C(N)=O)c1ccc2nc(-c3ccncc3)[nH]c2c1
166	CSCc1nc(C)c(C)c(O)n1

melting point [°C]	SMILES
58	CCN(CC)C(=O)CCc1nc(-c2ccccc2)cc2ccccc12
118	N#Cc1ccc(Cn2cncc2CCNC(=O)[C@H]2CN(Cc3ccccc3)CCN2C(=O)CC2CCN(C(N)=O)CC2)cc1
154 to 155	O=C(O)Cc1cccc(Cc2nc3c(F)c(F)ccc3s2)c1
129 to 131	COC(=O)c1cc2cc(OC)ccc2cc1O
113 to 115	Cc1cc(OCc2oc(-c3ccc(C(F)(F)F)cc3)nc2C)ccc1CCC(=O)O
169 to 170	CCOC(=O)c1nc(C(=O)OCC)nc(C(=O)OCC)n1
135 to 136	CCOC(=O)C1=C(C)NC(CN2C(=O)c3ccccc3C2=O)=C(C(=O)OCC)C1c1cccc(Cl)c1 (stereo not drawn)
145 to 147	CCc1cccc(C)c1CNc1cc(Br)cc2c1nc(C)n2C
122 to 125	Cn1c(CO)nc2cncnc21
128 to 129	COc1cc([N+](=O)[O-])c(N)cc1Cl
270 to 272	O=C(O)COc1ccc(-c2coc3cc(OCC(=O)O)ccc3c2=O)cc1
132 to 133	C[C@H]1C=CC2=C[C@@H](O)C[C@H](OC(=O)C(C)(C)C)[C@@H]2[C@H]1CC[C@@H]1C[C@@H](O)CC(=O)O1
108 to 110	COc1cc(C)c(OC)cc1C
122	O=C(Nc1ccccc1OCC1CO1)c1cccc2[nH]ccc12 (stereo not drawn)
202 to 203	CC(C)n1c(C=O)c(-c2ccc(F)cc2)c(-c2ccccc2)c1C(=O)Nc1cccc(C(=O)N(C)C)c1
146	CC(C)(C)N(CC(=O)Nc1n[nH]c(=S)s1)C(=O)C(Cc1ccc(OCc2ccccc2)cc1)NC(=O)OCc1ccccc1 (stereo not drawn)
164 to 168	CCOC(=O)c1cn(C2CC2)c2c(Br)c(F)c(F)cc2c1=O
160 to 162	CCCNC(=O)C(Cc1ccc2c(c1)c(Cc1ccc(C(=O)O)cc1OC)cn2CCC)C(C)C (stereo not drawn)
190 to 193	CC(CNc1cc(Oc2ccc3c(C(=O)Nc4cc(C(C)(C)C)nn4-c4ccc(F)cc4)cccc3c2)ncn1)N(C)C (stereo not drawn)
107 to 113	CNCC1(C)Cc2c(C)c(N3CCN(c4ccc(OC)cc4)CC3)c(C)c(C)c2O1 (stereo not drawn)
172	COc1ccccc1C1(O)OC(=O)C(c2ccc3c(c2)OCO3)=C1Cc1ccc2nsnc2c1 (stereo not drawn)

SMILES	melting point [°C]
COc1cccc(C23CCN(C)CC2Cc2c([nH]c(C(=O)N4CCCC4)c2C)C3)c1 (stereo not drawn)	171 to 173
CN1C(=O)[C@H](NC(=O)C(c2ccccc2)c2ccccc2)N=C(c2ccccc2)c2ccccc21	200 to 201
CN1Cc2cccnc2C(N2CCN(C(=O)Cc3ccncc3)CC2)c2ccc(Cl)cc21 (stereo not drawn)	83 to 87
O=S1(=O)c2cccc3cccc(c23)N1CCN1CC=C(c2ccccc2)CC1	106
ON=C1C2CCN(CC2)C1CN1CCCC1 (stereo not drawn)	194 to 195
N#Cc1nn(-c2c(Cl)cc(C(F)(F)F)cc2Cl)c(F)c1S(=O)(=O)C(F)(F)F	95 to 98
Cc1nnc2n1-c1sccc1C(c1ccccc1[N+](=O)[O-])=NC2	260 to 262
CC1(C)C(=O)N(c2ccc(C#N)c(C(F)(F)F)c2)C(=O)N1C(=O)c1ccccc1	179 to 180
CC(C)(C)OC(=O)N1CCC(C#N)(c2cccc(C(F)(F)F)c2)CC1	72 to 73
O=C(Nc1cc(Cl)c([N+](=O)[O-])cc1O)C(=O)Nc1cc(Cl)c([N+](=O)[O-])cc1O	302
CCCNCC(O)c1cccc(Br)c1 (stereo not drawn)	79.7 to 81.4
